# Reference: ChEMBL document CHEMBL1143809, “New bis-N9-(methylphenylmethyl)purine derivatives: synthesis and antitumor activity” (2007)
# What was measured:
# Format in all cases: functional
# OVCAR-4 = experiment: Growth inhibition of human OVCAR4 cells after 48 hrs by SRB protein assay; settings: OVCAR-4, 48 h
# [1] = Growth inhibition of human LOX MIVI cells after 48 hrs by SRB protein assay
# UO-31 = experiment: Growth inhibition of human UO31 cells after 48 hrs by SRB protein assay; settings: UO-31, 48 h
# COLO 205 = experiment: Growth inhibition of human COLO205 cells after 48 hrs by SRB protein assay; settings: COLO 205, 48 h
# UACC-62 = experiment: Growth inhibition of human UACC62 cells after 48 hrs by SRB protein assay; settings: UACC-62, 48 h
# SF-268 = experiment: Anticancer activity against human SF268 cells assessed as growth at 100 uM after 48 hrs by SRB protein assay relative to control; settings: SF-268, 48 h, read-out: Activity
# UACC-257 = experiment: Growth inhibition of human UACC257 cells after 48 hrs by SRB protein assay; settings: UACC-257, 48 h; for CC50: read-out: LC50 (the source's name)
# NCI-H460 [2] = experiment: Growth inhibition of human NCL-H460 cells after 48 hrs by SRB protein assay; settings: NCI-H460, 48 h; for CC50: read-out: LC50 (the source's name)
# M14 = experiment: Growth inhibition of human M14 cells after 48 hrs by SRB protein assay; settings: M14, 48 h
# SNB-75 = experiment: Growth inhibition of human SNB75 cells after 48 hrs by SRB protein assay; settings: SNB-75, 48 h; for CC50: read-out: LC50 (the source's name)
# [3] = Growth inhibition of human NCL-H23 cells after 48 hrs by SRB protein assay; settings: NCL-H23, 48 h
# MDA-MB-231 = experiment: Growth inhibition of human MDA-MB-231 cells after 48 hrs by SRB protein assay; settings: MDA-MB-231, 48 h
# SN12C = experiment: Growth inhibition of human SN12C cells after 48 hrs by SRB protein assay
# NCI-H460 [4] = experiment: Anticancer activity against human NCL-H460 cells assessed as growth at 100 uM after 48 hrs by SRB protein assay relative to control; settings: NCI-H460, 48 h, read-out: Activity
# HOP-92 = experiment: Growth inhibition of human HOP92 cells after 48 hrs by SRB protein assay; settings: HOP-92, 48 h
# EKVX = experiment: Growth inhibition of human EKVX cells after 48 hrs by SRB protein assay
# HCT-116 = experiment: Growth inhibition of human HCT116 cells after 48 hrs by SRB protein assay; settings: HCT-116, 48 h; for CC50: read-out: LC50 (the source's name)
# [5] = Growth inhibition of human NCL-H226 cells after 48 hrs by SRB protein assay; settings: NCL-H226, 48 h
# SK-MEL-5 = experiment: Growth inhibition of human SK-MEL-5 cells after 48 hrs by SRB protein assay; settings: SK-MEL-5, 48 h
# HCC 2998 = experiment: Growth inhibition of human HCC2998 cells after 48 hrs by SRB protein assay; settings: HCC 2998, 48 h
# A498 = experiment: Growth inhibition of human A498 cells after 48 hrs by SRB protein assay; settings: A498, 48 h; for CC50: read-out: LC50 (the source's name)
# HT-29 = experiment: Growth inhibition of human HT29 cells after 48 hrs by SRB protein assay; settings: HT-29, 48 h
# MCF7 = experiment: Growth inhibition of human MCF7 cells after 48 hrs by SRB protein assay; settings: MCF7, 48 h
# 786-0 = experiment: Growth inhibition of human 786-0 cells after 48 hrs by SRB protein assay; settings: 786-0, 48 h; for CC50: read-out: LC50 (the source's name)
# CAKI-1 = experiment: Growth inhibition of human CAKI1 cells after 48 hrs by SRB protein assay; settings: CAKI-1, 48 h; for CC50: read-out: LC50 (the source's name)
smiles,measurement,setting,value
Clc1nc(Cl)c2ncn(Cc3ccc(Cn4cnc5c(Cl)nc(Cl)nc54)cc3)c2n1,GI50,OVCAR-4,14.3 µM
same,LC50,OVCAR-4,52.5 µM
same,TGI,OVCAR-4,27.5 µM
same,GI50,[1],2.88 µM
same,LC50,[1],41.7 µM
same,TGI,[1],17.4 µM
same,GI50,UO-31,10 µM
same,LC50,UO-31,46.8 µM
same,TGI,UO-31,21.4 µM
same,LC50,COLO 205,41.7 µM
same,TGI,COLO 205,17.4 µM
same,GI50,UACC-62,13.8 µM
same,LC50 (concentration killing 50% of cells),UACC-62,51.3 µM
same,TGI,UACC-62,26.9 µM
same,growth at 100 µM,SF-268,58%
same,TGI,UACC-257,25.1 µM
same,CC50,UACC-257,50.1 µM
same,GI50,NCI-H460 [2],14.1 µM
same,TGI,NCI-H460 [2],26.9 µM
same,CC50,NCI-H460 [2],52.5 µM
same,LC50,M14,52.5 µM
same,TGI,M14,27.5 µM
same,GI50,SNB-75,< 0.01 µM
same,TGI,SNB-75,17 µM
same,CC50,SNB-75,41.7 µM
same,GI50,[3],13.8 µM
same,LC50,[3],51.3 µM
same,TGI,[3],26.9 µM
same,LC50 (50% lethal concentration),MDA-MB-231,46.8 µM
same,TGI,MDA-MB-231,21.9 µM
same,GI50,SN12C,14.1 µM
same,LC50,SN12C,52.5 µM
same,TGI,SN12C,27.5 µM
same,growth at 100 µM,NCI-H460 [4],0%
same,LC50,HOP-92,57.5 µM
same,TGI,HOP-92,26.3 µM
same,GI50,EKVX,< 0.01 µM
same,LC50,EKVX,44.7 µM
same,TGI,EKVX,19.9 µM
same,GI50,HCT-116,9.33 µM
same,TGI,HCT-116,21.4 µM
same,CC50,HCT-116,46.8 µM
same,GI50,[5],17 µM
same,LC50,[5],93.3 µM
same,TGI,[5],39.8 µM
same,GI50,SK-MEL-5,10.7 µM
same,LC50,SK-MEL-5,47.9 µM
same,TGI,SK-MEL-5,22.9 µM
same,LC50,HCC 2998,50.1 µM
same,TGI,HCC 2998,25.1 µM
same,TGI,A498,22.9 µM
same,CC50,A498,47.9 µM
same,GI50,HT-29,< 0.01 µM
same,LC50,HT-29,39.8 µM
same,TGI,HT-29,15.8 µM
same,GI50,MCF7,10.5 µM
same,LC50,MCF7,61.7 µM
same,TGI,MCF7,25.1 µM
same,GI50,786-0,14.5 µM
same,TGI,786-0,27.5 µM
same,CC50,786-0,52.5 µM
same,GI50,CAKI-1,15.8 µM
same,TGI,CAKI-1,30.2 µM
same,CC50,CAKI-1,57.5 µM
Clc1nc(Cl)c2ncn(Cc3cccc(Cn4cnc5c(Cl)nc(Cl)nc54)c3)c2n1,GI50,OVCAR-4,15.1 µM
same,LC50,OVCAR-4,55 µM
same,TGI,OVCAR-4,28.8 µM
same,GI50,[1],2.23 µM
same,LC50,[1],21.9 µM
same,TGI,[1],5.62 µM
same,GI50,UO-31,1.9 µM
same,LC50,UO-31,6.6 µM
same,TGI,UO-31,3.54 µM
same,GI50,COLO 205,3.38 µM
same,LC50,COLO 205,> 100 µM
same,TGI,COLO 205,> 11.2 µM
same,GI50,UACC-62,2.39 µM
same,LC50 (concentration killing 50% of cells),UACC-62,22.4 µM
same,TGI,UACC-62,5.88 µM
same,growth at 100 µM,SF-268,0%
same,GI50,UACC-257,4.78 µM
same,TGI,UACC-257,17.4 µM
same,CC50,UACC-257,56.2 µM
same,GI50,NCI-H460 [2],3.71 µM
same,TGI,NCI-H460 [2],13.5 µM
same,CC50,NCI-H460 [2],58.9 µM
same,GI50,M14,2.75 µM
same,LC50,M14,33.9 µM
same,TGI,M14,7.58 µM
same,GI50,SNB-75,2.23 µM
same,TGI,SNB-75,5.62 µM
same,CC50,SNB-75,93.3 µM
same,GI50,[3],8.51 µM
same,LC50,[3],52.5 µM
same,TGI,[3],21.9 µM
same,GI50,MDA-MB-231,2.63 µM
same,LC50 (50% lethal concentration),MDA-MB-231,30.2 µM
same,TGI,MDA-MB-231,7.07 µM
same,GI50,SN12C,4.67 µM
same,LC50,SN12C,60.2 µM
same,TGI,SN12C,18.2 µM
same,growth at 100 µM,NCI-H460 [4],0%
same,GI50,HOP-92,6.16 µM
same,LC50,HOP-92,70.8 µM
same,TGI,HOP-92,22.4 µM
same,GI50,EKVX,3.09 µM
same,LC50,EKVX,41.7 µM
same,TGI,EKVX,11 µM
same,GI50,HCT-116,5.75 µM
same,TGI,HCT-116,22.4 µM
same,CC50,HCT-116,9.33 µM
same,GI50,[5],4.78 µM
same,LC50,[5],> 100 µM
same,TGI,[5],26.9 µM
same,GI50,SK-MEL-5,2.45 µM
same,LC50,SK-MEL-5,22.4 µM
same,TGI,SK-MEL-5,5.88 µM
same,GI50,HCC 2998,2.39 µM
same,LC50,HCC 2998,25.7 µM
same,TGI,HCC 2998,7.07 µM
same,GI50,A498,4.57 µM
same,TGI,A498,17.4 µM
same,CC50,A498,46.8 µM
same,GI50,HT-29,4.46 µM
same,LC50,HT-29,> 100 µM
same,TGI,HT-29,> 100 µM
same,GI50,MCF7,3.63 µM
same,LC50,MCF7,> 100 µM
same,TGI,MCF7,37.1 µM
same,GI50,786-0,12.3 µM
same,TGI,786-0,26.3 µM
same,CC50,786-0,57.5 µM
same,GI50,CAKI-1,12 µM
same,TGI,CAKI-1,26.3 µM
same,CC50,CAKI-1,57.5 µM
